# Data from patent publication US20250222114A1, “GLYCOCONJUGATED DRUG FOR THE TREATMENT OF HEPATOCELLULAR CARCINOMA” (priority 2021, published 2025).
# Values joined by “and” are separate entries in the source; they are usually repeats but may differ in a detail not shown here. Equal values may be shown once.
# Columns and labels:
# [1] = test system: Huh7 (human hepatic cell line); experiment: Cell viability (CellTiter), Huh7; format: cell-based; settings: for IC50: Huh7 cells
# Procedure: (§1) In order to evaluate the therapeutic efficacy and potential cytotoxicity of the glycoconjugated drug of the invention for the treatment of HCC, cell viability assays were carried out in different cell lines. To this end, an in vitro model was designed. The cells used for in vitro assay were a murine hepatic cell line (Hepa1-6) and a human hepatic cell line (Huh7). Chemiograms were performed using increasing doses of the compound 4-MU as well as the glycosylated compound 4MUR (0-2000 μM). Cell viability was measured by using the CellTiter kit (Promega Corporation). Proliferation was measured through a tritiated thymidine incorporation assay, by incubating the cells for 48 h with either one of the compounds (4MU/4MUR) or culture medium (RPMI) in the presence of 3H-thymidine (Migliore-LaClaustra).
# [2] = test system: CFSC-2G (Rat hepatic stellate cell line); experiment: Cell viability, CFSC-2G; format: cell-based; settings: CFSC-2G cells
# Procedure: as §1, with “lines.” for “lines. To this end, an in vitro model was designed. The cells used for in vitro assay were a murine hepatic cell line (Hepa1-6) and a human hepatic cell line (Huh7).”
# [3] = test system: IHH (human hepatocytes cell line); experiment: Cell viability, IHH; format: cell-based; settings: IHH cells
# Procedure: as §1, with “lines.” for “lines. To this end, an in vitro model was designed. The cells used for in vitro assay were a murine hepatic cell line (Hepa1-6) and a human hepatic cell line (Huh7).”
# [4] = test system: Hepa129 cells; experiment: Proliferation by 3H-thymidine incorporation, Hepa129; format: cell-based, murine; settings: for dose at which proliferation was significantly decreased: Hepa129, 48 h, 3H-thymidine
# Procedure: Chemiograms were performed using increasing doses of the compound 4-MU as well as the glycosylated compound 4MUR (0-2000 μM). Cell viability was measured by using the CellTiter kit (Promega Corporation). Proliferation was measured through a tritiated thymidine incorporation assay, by incubating the cells for 48 h with either one of the compounds (4MU/4MUR) or culture medium (RPMI) in the presence of 3H-thymidine (Migliore-LaClaustra). After incubation, cells were harvested and centrifuged to remove ^3H-thymidine from the supernatant. The cell pellet was lysed with sterile distilled water (200 μl) and said volume was added to paper filters for retaining cell DNA with incorporated ^3H-thymidine. Each paper filter was impregnated in a tube containing scintillation liquid and each sample was run and read using a liquid scintillator counter (Beckman) detecting […] per minute emitted by tritium (^3H). Results are expressed as counts per minute (cpm) for each sample. Proliferation capacity of murine Hepa129 cells treated with 4MU and 4MUR was evaluated, as measured by ^3H-thymidine incorporation.
# [5] = test system: Hepa129 cells; experiment: Apoptosis by acridine orange/ethidium bromide staining, Hepa129; format: cell-based, murine; settings: 48h; for induction of apoptosis: Hepa129, 0.1 mM; for cells showing death by apoptosis: Hepa129, 1 mM
# Procedure: On the other hand, it was examined if growth inhibition by 4MUR was due to induction of apoptosis. To this end, cells were stained with an orange solution of acridine-ethidium bromide (Acridine Orange (NA)/Ethidium Bromide (BrEt) staining) and were then visualized by fluorescence microscopy to analyze their morphological characteristics. Briefly, after 48h of treatment, the cells were incubated with a mixture of NA/BrEt (1 ug/ml) and were then observed under a fluorescence microscope (Nikon). Viable cells are permeable to NA and are stained green. Cells with an altered plasma membrane allow BrEt to enter, which displaces NA, staining the cell orange. The percentage of viable or apoptotic cells was counted for each treatment.
# [6] = test system: HAS2; experiment: HAS2 mRNA expression (RT-qPCR), Huh7; format: cell-based, human; settings: Huh7 cells
# Procedure: (§2) Since HAS mRNA levels often correspond to the activity of hyaluronan synthesis, the effect of 4MUR on HAS2 and HAS3 expression was assessed. To this end, cells with a concentration of 100,000 cells/ml were cultured on 6-well plates and treated with 4MUR (500 μM) for 24 h. Total RNA was extracted using the TriReagent (Sigma Aldrich) according to the manufacture's protocol. RNA was quantified at 260 nm in a DU®730 spectrophotometer (Beckman Coulter, Fullerton, CA, USA). The RNA purity was evaluated according to MIQE guidelines by measuring the ratio A260/A280. […] RT-qPCR for HAS2, HAS3 genes was performed using iQ SYBR Green Supermix protocol (Bio-Rad Laboratories, Milan, Italy). Each PCR amplification was carried out following manufactures instructions (iQ SYBR Green Supermix-Bio-Rad) in a Bio-Rad iQ5 real-time PCR detection system (iCycler IQ5 software, version 3.1; Bio-Rad) Expression was normalized to actin with two reference genes.
# [7] = test system: HAS3; experiment: HAS3 mRNA expression (RT-qPCR), Huh7; format: cell-based, human; settings: Huh7 cells
# Procedure: as §2
# [8] = test system: HAS2; experiment: HAS2 mRNA expression (RT-qPCR), CFSC-2G; format: cell-based, rat; settings: CFSC-2G cells
# Procedure: as §2
# [9] = test system: HAS3; experiment: HAS3 mRNA expression (RT-qPCR), CFSC-2G; format: cell-based, rat; settings: CFSC-2G cells
# Procedure: as §2
# [10] = test system: HA in CFSC-2G cells; experiment: HA content by flow cytometry, CFSC-2G; format: cell-based, rat; settings: 0.25-1 mM, 48 h
# Procedure: The levels of HA were quantified in the activated stellate cells CFSC-2G. For this goal, HA was detected by incubation with HA-fluorescein iso-thiocyanate (FITC) (20 μg/100 μL, Calbiochem SA, Bs. As., Argentina). Cells were treated with 4MU or 4MUR 0.25-1 mM and fixed were analyzed by flow cytometry with a FACS Accuri, BD (Becton Dickinson Immunocytometry Systems), using the BD Accuri 6C™ software.
# [11] = test system: HA in Hepa129 cells; experiment: HA content by flow cytometry, Hepa129; format: cell-based, murine; settings: 48 h
# [12] = test system: orthotopic Hepa129 tumors; experiment: Orthotopic hepatocellular carcinoma model associated with advanced fibrosis induced by TAA; format: in vivo, C3H/He mice; settings: for tumor volume: 20 mg/Kg i.p. 3 times a week, day 21 post Hepa129 inoculation; for animals in which tumors were not detected macroscopically: day 21 post-Hepa129; for animal survival: Day 20, FIG. 12C; for fibrosis degree measured by collagen deposits (Sirius red): liver sections
# Procedure: To assess the in vivo antitumoral efficacy of 4MUR, an orthotopic tumor model associated with advanced fibrosis induced by TAA was established
# C3H/He mice were intraperitoneally (i.p.) treated with 20 mg/kg thioacetamide (TAA) 3 times a week, for 4 weeks, in order to induce liver fibrosis. On day 28, mice were anesthetized and underwent surgery and orthotopic tumors were established by subcapsular intrahepatic inoculation of 1.25×10^5 Hepa129 cells into the left lobe of the liver (Day 0).
# Between day 5 and day 7 post-administration of the cells, animals were again subjected to surgery for observing tumor development. Mice were divided into 3 groups (n=5) and each group received: (1) Saline solution (control); (2) 4MU dissolved in water, at a dose of 20 mg/Kg; (3) 4MUR dissolved in water at a dose of 20 mg/Kg. Intraperitoneal administration for different groups began on day 5 and was performed 3 times a week, until the end of the experiment on day 21 post Hepa129 inoculation. On day 21, animals were sacrificed, mice weight was recorded and ascites grade (mild, moderated, severe, and hemorrhagic), as well as tumor volume (mm^3), was calculated by the formula π/6×larger diameter×(smaller diameter)^2, by caliber measurement.
# The 4MUR treatment on liver fibrogenesis was evaluated in the animal model. […] To assess the extent of liver fibrosis, formalin-fixed liver samples were embedded in paraffin and 5 μm sections were stained by Sirius Red for detection of fibrillar collagen. Quantitative analysis of Sirius red stained area was performed by computerized morphometric analysis. About 50 light microscope images (100× magnification) per specimen were captured and analyzed using the color threshold detection system developed in ImageJ software (NIH, USA). The results were expressed as percentage of positive area. Collagen deposition was quantified by morphometric analysis and densitometry.
# To further understand the 4MUR effect on HCC, HA expression was evaluated in liver tissue sections of mice from the different groups by staining with an HA-binding protein (HA-BP). Negative controls were stained with bHA-BP and pretreated with 100 U/ml Streptomyces hyaluronidase (#385931, Calbiochem) at 37° C. for 30 min. Peroxidase complex (Sigma) 1:10 in PBS was used for developing. The signal was detected by 0.1% diaminobenzidine (Sigma-Aldrich, Buenos Aires, Argentina), 4% glucose, 0.08% ClNH4, 5% nickel ammonium sulfate in 0.2 M AcNa and 0.05% H2O2.
# [13] = Toxicity study in mice; format: in vivo, C3Hj mice; settings: for animal body weight: more than 20 days
# Procedure: In order to evaluate the toxicity of the compound of the invention, an in vivo assay with mice was carried out. Animals treated with 4MUR were kept healthy during all the experimental protocol.
# Briefly, C3Hj mice untreated (n=4) or treated with 4MU (n=4) or 4MUR (n=5) were used to assess its toxicology profile. Mice weight was supervised for more than 20 days. At the end of the experiments, healthy mice or mice receiving 4MU/4MUR were sacrificed to collect liver, spleen, heart, lung, and kidney samples. Tissue sections from liver, spleen, heart, and lungs were paraffin-embedded and H&E staining procedure was performed using standard protocols.
# [14] = test system: Hepa1-6 (murine hepatic cell line); experiment: Cell viability, Hepa1-6; format: cell-based; settings: Hepa 1.6 cells, compared with 4-MU
# Procedure: In order to evaluate the therapeutic efficacy and potential cytotoxicity of the glycoconjugated drug of the invention for the treatment of HCC, cell viability assays were carried out in different cell lines.
# To this end, an in vitro model was designed. The cells used for in vitro assay were a murine hepatic cell line (Hepa1-6) and a human hepatic cell line (Huh7).
# Chemiograms were performed using increasing doses of the compound 4-MU as well as the glycosylated compound 4MUR (0-2000 μM). Cell viability was measured by using the CellTiter kit (Promega Corporation). Proliferation was measured through a tritiated thymidine incorporation assay, by incubating the cells for 48 h with either one of the compounds (4MU/4MUR) or culture medium (RPMI) in the presence of 3H-thymidine (Migliore-LaClaustra).
# [15] = test system: α-SMA, TGF-β, COL1A2, TIMP-1, MMP-9 in CFSC-2G cells; experiment: Fibrotic-related gene expression by qPCR, CFSC-2G; format: cell-based, rat; settings: 48 h
# Procedure: The effect of 4MUR on liver fibrogenesis was assessed by the expression of the fibrotic-related genes including α-SMA, TGF-β, profibrogenic (COL1A2 and TIMP-1), and the antifibrogenic gene matrix metalloproteinase (MMP-9) on CFSC-2G cells by qPCR.
# [16] = test system: orthotopic Hepa129 tumors; experiment: Orthotopic hepatocellular carcinoma model associated with advanced fibrosis induced by TAA; format: in vivo, C3H/He mice; settings: oral administration 200 mg/kg/day
structure (smiles),measurement,setting,value
"Cc1cc(=O)oc2cc(O)ccc12 [4MU, 4-Methylumbelliferone, reference compound]",IC50,"[1]; Homo sapiens, Huh-7",> 2000 µM
same,IC50,[2]; Rattus norvegicus,1160 µM
same,IC50,"[3]; Homo sapiens, Hepatocyte",486 µM
same,lowered proliferation,"[4]; Hepa129, 1 mM",50%
same,dose at which proliferation was significantly decreased,[4],1 mM
same,induction of apoptosis,[5],resistant
same,cells showing death by apoptosis,[5],60%
same,expression of HAS2,[6],did not affect
same,HAS3 up-regulation,[7],around 3.5 fold
same,HAS2 upregulation,[8],around 5 fold
same,HAS3 expression upregulation,[9],4.2 fold
same,HA level,[10],significantly decreased
same,HA contents,[11],significantly decreased
same,tumor volume,[12],243.8±94.0 mm^3
same,animals in which tumors were not detected macroscopically,[12]; 20 mg/Kg i.p.,20%
same,animal survival,[12],66% and 67%
same,fibrosis degree measured by collagen deposits (Sirius red),[12]; 20 mg/Kg i.p.,0.53±0.04
same,"histology (H&E) of liver, kidney, lungs, spleen, heart",[13],no induced tissue damage
same,animal body weight,[13],no significant changes
"Cc1cc(=O)oc2cc(O[C@@H]3O[C@H](CO[C@@H]4O[C@@H](C)[C@H](O)[C@@H](O)[C@H]4O)[C@@H](O)[C@H](O)[C@H]3O)ccc12 [4MUR, 4-methylumbelliferyl-rutinoside]",increase of 4MU antitumoral effect by glycosylation,"[1]; Huh7, 4MUR compared to 4MU",2.2
same,IC50,[1],488 µM
same,IC50,[2],> 2000 µM
same,increase of IC50 values of 4MUR compared to 4MU,[2],25.8 fold
same,IC50,[3],> 2000 µM
same,increase of IC50 values of 4MUR compared to 4MU,[3],6.2 fold
same,in vitro antitumoral effect,[14],significantly higher than 4-MU
same,lower dose for significant decrease of proliferation vs 4MU,[4]; Hepa129,10 times
same,proliferation,"[4]; Hepa129, 1 mM",did not proliferate
same,dose at which proliferation was significantly decreased,[4],0.1 mM
same,induction of apoptosis,[5],significantly induced apoptosis
same,cells showing death by apoptosis,[5],100%
same,expression of HAS2,[6],significantly reduced
same,expression of HAS3,[7],significantly reduced
same,HAS2 expression,[8],did not affect
same,HAS3 expression down regulation,[9],4.5 fold
same,HA level,[10],significantly decreased
same,HA contents,[11],significantly decreased
same,COL1A2 expression,[15],strongly downregulated
same,MMP-9 expression,[15],not affected
same,TGF-β expression,[15],strongly downregulated
same,TIMP-1 expression,[15],strongly downregulated
same,α-SMA expression,[15],strongly downregulated
same,HA expression in liver tissue (HA-BP staining),[12]; 20 mg/Kg i.p.,remarkable reduction
same,tumor volume,[12],113.5±77.8 mm^3
same,animals in which tumors were not detected macroscopically,[12]; 20 mg/Kg i.p.,60%
same,animal survival,[12],100%
same,amount of ascitic fluid,[12]; compared with untreated mice and 4MU,significantly reduced
same,efficacy against hepatocellular carcinoma,[12]; i.p. 20 mg/kg/day,efficient
same,fibrosis degree measured by collagen deposits (Sirius red),[12]; 20 mg/Kg i.p.,0.21±0.02
same,health of animals during the experimental protocol,[13],kept healthy
same,"histology (H&E) of liver, kidney, lungs, spleen, heart",[13],no induced tissue damage
same,animal body weight,[13],no significant changes
same,efficacy against hepatocellular carcinoma,[16],efficient
